Measurements from US11708562B2, “Differentiation of human embryonic stem cells” (Janssen Biotech, Inc., priority 2006, dated 2023).

Test system: H9P83 cells on MATRIGEL and H9P44 cells on MEFs
Assay: Microarray analysis of gene expression after definitive endoderm formation (Table IV)
Assay type: cell-based, human
Procedure: Controls for each group included cells plated on […]-coated dishes and cultured in MEF-conditioned medium or cells plated on MEFs and cultured in ES medium.
Sample preparation, hybridization, and image analysis were performed according to the Affymetrix Human Genome U133 Plus 2.0 Array. Following normalization and a log transformation, data analysis was performed using OmniViz® software (MA) and […] (VizXLabs, WA). The variability within each treatment and among the different treatments was compared using the Pearson correlation coefficient. […] Significant differences in gene expression between the samples were evaluated using analysis of variance and an F-test with adjusted P-value (Benjamini and Hochberg correction) of ≤0.05. Only genes with a present call were included in the analysis.

[1] = microarray, H9P44 on MEFs, DE stage, 5 days of treatment
[2] = microarray, H9P83 on Matrigel, DE stage, 5 days of treatment

Activin A: a member of the TGFβ superfamily; growth factor (R&D Systems) used to differentiate human embryonic stem cells
SCG5 (NM_003020) gene expression (H9P83 on Matrigel-DE stage, after 5 days of treatment, undifferentiated H9P83 on Matrigel 4.03): 2.53
C20orf118 (BF437747) gene expression (H9P83 on Matrigel-DE stage, after 5 days of treatment, undifferentiated H9P83 on Matrigel 4.26): 1.99
C20orf118 (AV715309) gene expression (H9P83 on Matrigel-DE stage, after 5 days of treatment, undifferentiated H9P83 on Matrigel 4.28): 1.89
LECT1 (NM_007015) gene expression (H9P83 on Matrigel-DE stage, after 5 days of treatment, undifferentiated H9P83 on Matrigel 4.83): 2.27
SCNN1G (AI985987) gene expression (H9P83 on Matrigel-DE stage, after 5 days of treatment, undifferentiated H9P83 on Matrigel −0.28): −0.99
PCDH8 (NM_002590) gene expression (H9P83 on Matrigel-DE stage, after 5 days of treatment, undifferentiated H9P83 on Matrigel −0.80): −0.83
TMEM16A (NM_018043) gene expression (H9P83 on Matrigel-DE stage, after 5 days of treatment, undifferentiated H9P83 on Matrigel −0.90): −1.93
ATP5S (BE968806) gene expression (H9P83 on Matrigel-DE stage, after 5 days of treatment, undifferentiated H9P83 on Matrigel −1.15): −3.03
SDK2 (N23651) gene expression (H9P83 on Matrigel-DE stage, after 5 days of treatment, undifferentiated H9P83 on Matrigel −1.16): −2.65
PAK7 (AB040812) gene expression (H9P83 on Matrigel-DE stage, after 5 days of treatment, undifferentiated H9P83 on Matrigel −1.37): −3.89
IFIH1 (NM_022168) gene expression (H9P83 on Matrigel-DE stage, after 5 days of treatment, undifferentiated H9P83 on Matrigel −2.03): −2.76
gene expression ADAMTS5 (NM_007038), H9P44 on MEFs-DE stage [1]: 1.11
gene expression AF116676 (PRO1957 mRNA), H9P44 on MEFs-DE stage [1]: 4.23
gene expression AI016316 (ESTs), H9P44 on MEFs-DE stage [1]: 0.25
gene expression AI222435 (ESTs), H9P44 on MEFs-DE stage [1]: −0.33
gene expression AK057525 (cDNA FLJ32963), H9P44 on MEFs-DE stage [1]: 4.80
gene expression BE327172 (v-jun avian sarcoma virus 17 oncogene homolog), H9P44 on MEFs-DE stage [1]: 3.57
gene expression C9orf19 (AA284532), H9P44 on MEFs-DE stage [1]: 4.93
gene expression CD99 (U82164), H9P44 on MEFs-DE stage [1]: 6.36
gene expression CDKN1A (NM_000389), H9P44 on MEFs-DE stage [1]: 4.16
gene expression CNN1 (NM_001299), H9P44 on MEFs-DE stage [1]: 5.14
gene expression COL22A1 (AW241910), H9P44 on MEFs-DE stage [1]: 1.90
gene expression CREB5 (AI819043), H9P44 on MEFs-DE stage [1]: 1.80
gene expression CXCL1 (NM_001511), H9P44 on MEFs-DE stage [1]: 2.39
gene expression DNAJB2 (NM_006736), H9P44 on MEFs-DE stage [1]: 3.75
gene expression DNAJC15 (NM_013238), H9P44 on MEFs-DE stage [1]: 5.58
gene expression EDG3 (AA534817), H9P44 on MEFs-DE stage [1]: 4.58
gene expression EMP3 (NM_001425), H9P44 on MEFs-DE stage [1]: 3.13
gene expression FLNC (NM_001458), H9P44 on MEFs-DE stage [1]: 3.39
gene expression FN1 (AK026737), H9P44 on MEFs-DE stage [1]: 7.39
gene expression FN1 (BC005858), H9P44 on MEFs-DE stage [1]: 7.37
gene expression GADD45A (NM_001924), H9P44 on MEFs-DE stage [1]: 5.38
gene expression GNA14 (NM_004297), H9P44 on MEFs-DE stage [1]: 2.95
gene expression HIST1H2BK (BC000893), H9P44 on MEFs-DE stage [1]: 4.81
gene expression IGSF4 (NM_014333), H9P44 on MEFs-DE stage [1]: 3.79
gene expression JUN (BG491844), H9P44 on MEFs-DE stage [1]: 5.91
gene expression KLF6 (AB017493), H9P44 on MEFs-DE stage [1]: 4.87
gene expression MFAP5 (U37283), H9P44 on MEFs-DE stage [1]: 1.36
gene expression MYL4 (M36172), H9P44 on MEFs-DE stage [1]: 4.11
gene expression PALLD (AK025843), H9P44 on MEFs-DE stage [1]: 3.29
gene expression PDGFC (AB033831), H9P44 on MEFs-DE stage [1]: 0.21
gene expression PLK2 (NM_006622), H9P44 on MEFs-DE stage [1]: 5.19
gene expression ST3GAL1 (NM_003033), H9P44 on MEFs-DE stage [1]: 2.74
gene expression TRDN (AA192306), H9P44 on MEFs-DE stage [1]: 0.57
gene expression TTC29 (AF345910), H9P44 on MEFs-DE stage [1]: 0.91
gene expression X58851 (MLC1emb gene), H9P44 on MEFs-DE stage [1]: 4.04
gene expression ADAMTS5 (NM_007038), H9P83 on Matrigel-DE stage [2]: 1.80
gene expression AF116676 (PRO1957 mRNA), H9P83 on Matrigel-DE stage [2]: 3.31
gene expression AI016316 (ESTs), H9P83 on Matrigel-DE stage [2]: 1.19
gene expression AI222435 (ESTs), H9P83 on Matrigel-DE stage [2]: −0.73
gene expression AK057525 (cDNA FLJ32963), H9P83 on Matrigel-DE stage [2]: 4.45
gene expression BE327172 (v-jun avian sarcoma virus 17 oncogene homolog), H9P83 on Matrigel-DE stage [2]: 2.94
gene expression C9orf19 (AA284532), H9P83 on Matrigel-DE stage [2]: 4.12
gene expression CD99 (U82164), H9P83 on Matrigel-DE stage [2]: 5.69
gene expression CDKN1A (NM_000389), H9P83 on Matrigel-DE stage [2]: 4.20
gene expression CNN1 (NM_001299), H9P83 on Matrigel-DE stage [2]: 5.75
gene expression COL22A1 (AW241910), H9P83 on Matrigel-DE stage [2]: 1.15
gene expression CREB5 (AI819043), H9P83 on Matrigel-DE stage [2]: 2.63
gene expression CXCL1 (NM_001511), H9P83 on Matrigel-DE stage [2]: 2.95
gene expression DNAJB2 (NM_006736), H9P83 on Matrigel-DE stage [2]: 3.46
gene expression DNAJC15 (NM_013238), H9P83 on Matrigel-DE stage [2]: 3.79
gene expression EDG3 (AA534817), H9P83 on Matrigel-DE stage [2]: 3.28
gene expression EMP3 (NM_001425), H9P83 on Matrigel-DE stage [2]: 3.90
gene expression FLNC (NM_001458), H9P83 on Matrigel-DE stage [2]: 4.17
gene expression FN1 (AK026737), H9P83 on Matrigel-DE stage [2]: 6.85
gene expression FN1 (BC005858), H9P83 on Matrigel-DE stage [2]: 6.86
gene expression GADD45A (NM_001924), H9P83 on Matrigel-DE stage [2]: 5.04
gene expression GNA14 (NM_004297), H9P83 on Matrigel-DE stage [2]: 4.52
gene expression HIST1H2BK (BC000893), H9P83 on Matrigel-DE stage [2]: 3.99
gene expression IGSF4 (NM_014333), H9P83 on Matrigel-DE stage [2]: 4.12
gene expression JUN (BG491844), H9P83 on Matrigel-DE stage [2]: 5.45
gene expression KLF6 (AB017493), H9P83 on Matrigel-DE stage [2]: 4.02
gene expression MFAP5 (U37283), H9P83 on Matrigel-DE stage [2]: 1.87
gene expression MYL4 (M36172), H9P83 on Matrigel-DE stage [2]: 3.30
gene expression PALLD (AK025843), H9P83 on Matrigel-DE stage [2]: 3.38
gene expression PDGFC (AB033831), H9P83 on Matrigel-DE stage [2]: 0.63
gene expression PLK2 (NM_006622), H9P83 on Matrigel-DE stage [2]: 5.88
gene expression ST3GAL1 (NM_003033), H9P83 on Matrigel-DE stage [2]: 1.68
gene expression TRDN (AA192306), H9P83 on Matrigel-DE stage [2]: 0.02
gene expression TTC29 (AF345910), H9P83 on Matrigel-DE stage [2]: 1.53
gene expression X58851 (MLC1emb gene), H9P83 on Matrigel-DE stage [2]: 2.75
